The results in this text go back to US20250215002A1, “SOLID FORMS OF TYK2 INHIBITORS AND METHODS OF USE” (Takeda Pharmaceutical Company Limited, priority 2022, published 2025).

Entries after “also recorded” stand apart in the source; their conditions may differ.

What all share (format): physicochemical
A short description of data set [1]: Heating/desolvation experiments (TGA), recovered solids by XRPD. On the procedure:
TG analysis was performed using a Mettler-Toledo TGA/DSC3+ analyzer. Temperature calibration was performed using calcium oxalate, indium, tin, and zinc. The sample was placed in an aluminum pan. The pan was hermetically sealed, the lid pierced, then inserted into the TG furnace. A weighed aluminum pan configured as the sample pan was placed on the reference platform. The furnace was heated under nitrogen. Samples were analyzed from 25° C. to 350° C. at 10° C./min. The TGA/DSC3+ instrument was also used for select heating/desolvation experiments, in which solids were heated as described to a given temperature, then recovered and analyzed by XRPD.

Data set [2] in a line: Dynamic vapor sorption (DVS) moisture sorption/desorption. The following applies: for Hygroscopicity (description): DVS 5-95% RH. On the procedure:
Moisture sorption/desorption data were collected on a Surface Measurement System DVS Intrinsic instrument. The samples were not dried prior to analysis. Sorption and desorption data were collected over a range from 5% to 95% RH in 10% RH increments under a nitrogen purge. The equilibrium criteria used for the analyses were 0.001 dm/dt weight change in 5 minutes with a minimum step time of 30 minutes and maximum equilibration time of 180 minutes with a 3-minute data logging interval. Data were not corrected for the initial moisture content of the samples.

Data set [3] is described as follows: Stable form screen slurries, resulting solid form by XRPD. An excerpt:
Early in the study, slurries were set up for the stable form screen at RT (Table 5, infra). In these experiments, solids of the as-received mixture of Form A+minor Material B were combined with given solvent systems at a solid loading that allowed for undissolved solids to remain, and the mixtures were stirred at ambient conditions. […] Two slurries were selected for isolation at that time to confirm the solid form and chemical composition, while the remaining slurries were covered with foil as a precaution. The slurry in THF, which was observed as a green suspension (darker than many of the other slurries), caused conversion to a new crystalline form, designated as Form C.
Additional slurries were set up at elevated temperatures (˜60° C. and ˜80° C.) and sub-ambient temperatures (2 to 8° C.) as well. […]
XRPD patterns were collected with a PANalytical X'Pert PRO MPD or a PANalytical Empyrean diffractometer using an incident beam of Cu radiation produced using a long, fine-focus source. […] Prior to the analysis, a silicon specimen (NIST SRM 640e) was analyzed to verify the observed position of the Si 111 peak is consistent with the NIST-certified position. A specimen of the sample was sandwiched between 3-μm-thick films and analyzed in transmission geometry. […]

A short description of data set [4]: Relative humidity stressing (~90% RH), solid form by XRPD. Particulars: RT. An excerpt: Select materials were transferred to a vial, which was then uncapped and placed inside ajar containing a saturated aqueous barium chloride solution for ˜90% RH in the headspace (See, Nyqvist, H. E., Saturated Salt Solutions for Maintaining Specified Relative Humidities, Int. J. Pharm. Technol. Prod. Manuf 1983, 4, 47-48, which is incorporated by reference in its entirety). Jars were stored at the stated temperatures.
XRPD patterns were collected with a PANalytical X'Pert PRO MPD or a PANalytical Empyrean diffractometer using an incident beam of Cu radiation produced using a long, fine-focus source. An elliptically graded multilayer mirror was used to focus Cu Kα X-rays through the specimen and onto the detector. Prior to the analysis, a silicon specimen (NIST SRM 640e) was analyzed to verify the observed position of the Si 111 peak is consistent with the NIST-certified position. A specimen of the sample was sandwiched between 3-μm-thick films and analyzed in transmission geometry. A beam-stop, short antiscatter extension, and antiscatter knife edge were used to minimize the background generated by air. Soller slits for the incident and diffracted beams were used to minimize broadening and asymmetry from axial divergence. Diffraction patterns were collected using a scanning position-sensitive detector (X'Celerator) located 240 mm from the specimen and Data Collector software v. […]

The nature of data set [5]: Slurries of Form C at high water activity, resulting form by XRPD. Particulars: 1 d. As for the experimental part: In addition to the slurries starting with Form A, two slurries of Form C were set up at high water activity conditions to study possible conversion to a hydrate (Table 9, supra). THF/water 50:50 (aw ˜1) and neat water (aw 1) were used.
Suspensions were prepared by adding enough solids to a given solvent at the stated conditions so that undissolved solids were present. The mixture was then agitated (typically by stirring or oscillation) in a sealed vial at a given temperature for an extended period of time. The solids were isolated as described above.

In the case of `CNc1cc(Nc2cccn(-c3ccccn3)c2=O)nc2c(C(=O)N[C@@H]3CC[C@H]3OC)cnn12` [Form A], the “XRPD Result after heating” value in data set [1] (heat to 150° C. (TGA)) was “Full conversion to Form C; also recorded: converted to Form C upon”. In data set [2], the “Hygroscopicity (description)” value is recorded as “significant hygroscopicity”. Besides, the “DVS weight gain 5-95% RH” value in data set [2] (sorption 5-95% RH) is reported as 4.58%. Besides, in data set [3] (RT, hydrate Form A versus anhydrous Form C), the “Critical water activity (aw) between Form A and Form C” value is given as 0.69-0.82. The “XRPD Result after RH stress” value in data set [4] (6 d) was “still consisting of Form A”.
For `CNc1cc(Nc2cccn(-c3ccccn3)c2=O)nc2c(C(=O)N[C@@H]3CC[C@H]3OC)cnn12` [Form C], the “XRPD Result after slurry” value in data set [5] (slurry in THF/water 50:50 (aw ~1)) is “Full conversion to Form A”. For the same compound, the “XRPD Result after slurry” value in data set [5] (slurry in water (aw 1)) is “no form conversion”. Also, the “XRPD Result after heating” value in data set [1] (heat to 270° C., cool to 40° C., heat to 200° C. (TGA)) is recorded as “Material D”. In addition, in data set [2] (5% RH), the “DVS weight change at 5% RH” value came out at 0.00% weight change at 5% RH. The “Hygroscopicity (description)” value in data set [2] is reported as “limited hygroscopicity”. Also, the “post-DVS XRPD (solid form after DVS)” value in data set [2] (after sorption/desorption cycle 5-95-5% RH) is listed as “consistent with Form C”. Also, in data set [2] (desorption 95-5% RH), the “DVS weight loss 95-5% RH” value is given as 1.80% weight loss 95-5% RH. In addition, in data set [2] (sorption 5-95% RH), the “DVS weight gain 5-95% RH” value came out at 1.75% and the “DVS weight gain 5-95% RH, equivalent moles of water” value is ~0.5 mol. The “Thermodynamic stability of the form (description)” value in data set [3] (between 2° C. and 80° C.) is listed as “likely thermodynamically stable anhydrous/non-solvated form”. Also, the “XRPD Result after RH stress” value in data set [4] (11 d) is recorded as “consistent with Form C; also recorded: did not readily convert to a hydrate”.
